Results published in the NIST ThermoML archive (doi:10.1016/j.fluid.2016.11.012).
Several values for one entry are separate records, joined by “and”; a condition that tells them apart may be missing. Equal values may be shown once.

Tests used:
[1] = Crystal; for vapor or sublimation pressure: Closed cell (Static) method
[2] = molar heat capacity at constant pressure; settings: 100 kPa, DSC
[3] = Molar enthalpy of transition or fusion; settings: Crystal; DSC

C1=Cc2cccc3cccc1c23 [acenaphthylene]
[1]
Settings | Normal melting temperature [°C] | vapor or sublimation pressure
296.95 K | – | 0.00087 kPa
296.97 K | – | 0.00086 kPa
296.98 K | – | 0.00088 kPa
302.22 K | – | 0.00147 kPa
302.23 K | – | 0.00148 kPa and 0.00147 kPa
307.47 K | – | 0.00244 kPa
307.48 K | – | 0.00247 kPa
307.49 K | – | 0.00243 kPa
312.71 K | – | 0.00399 kPa
312.72 K | – | 0.00399 kPa and 0.00397 kPa
317.89 K | – | 0.00629 kPa and 0.00628 kPa and 0.00632 kPa
323.06 K | – | 0.00986 kPa
323.07 K | – | 0.00984 kPa and 0.00986 kPa
328.2 K | – | 0.01511 kPa
328.21 K | – | 0.01516 kPa
328.22 K | – | 0.01513 kPa
333.33 K | – | 0.02281 kPa
333.34 K | – | 0.02286 kPa and 0.02282 kPa
338.45 K | – | 0.03393 kPa and 0.03392 kPa
343.49 K | – | 0.04954 kPa
343.5 K | – | 0.04955 kPa and 0.0496 kPa
348.54 K | – | 0.07154 kPa and 0.07156 kPa
353.54 K | – | 0.1018 kPa
353.55 K | – | 0.1017 kPa and 0.1018 kPa
358.56 K | – | 0.1434 kPa and 0.1435 kPa
361.06 K | – | 0.1694 kPa
361.07 K | – | 0.1693 kPa and 0.1695 kPa
363.54 K | – | 0.1995 kPa
363.55 K | – | 0.1996 kPa and 0.1994 kPa
DTA | 92.00 | –

[2]
Settings | molar heat capacity at constant pressure
304.12 K, Crystal | 185.5 J/K/mol and 185.08 J/K/mol and 185.83 J/K/mol
306.11 K, Crystal | 186.74 J/K/mol and 186.41 J/K/mol and 186.24 J/K/mol
308.11 K, Crystal | 188.24 J/K/mol and 187.99 J/K/mol and 188.07 J/K/mol
310.11 K, Crystal | 188.57 J/K/mol and 188.99 J/K/mol and 188.74 J/K/mol
312.11 K, Crystal | 189.4 J/K/mol and 189.49 J/K/mol
314.11 K, Crystal | 190.82 J/K/mol and 190.32 J/K/mol
316.11 K, Crystal | 191.23 J/K/mol and 191.73 J/K/mol and 192.23 J/K/mol
318.11 K, Crystal | 192.31 J/K/mol and 192.65 J/K/mol and 192.15 J/K/mol
320.11 K, Crystal | 193.81 J/K/mol and 193.73 J/K/mol and 193.56 J/K/mol
322.11 K, Crystal | 195.06 J/K/mol and 195.47 J/K/mol
324.11 K, Crystal | 196.55 J/K/mol and 196.06 J/K/mol and 196.14 J/K/mol
326.11 K, Crystal | 196.97 J/K/mol and 197.8 J/K/mol and 196.8 J/K/mol
328.12 K, Crystal | 198.13 J/K/mol and 198.22 J/K/mol and 198.55 J/K/mol
330.12 K, Crystal | 200.13 J/K/mol and 198.88 J/K/mol and 199.8 J/K/mol
332.13 K, Crystal | 201.21 J/K/mol and 200.88 J/K/mol and 201.38 J/K/mol
369.13 K, Liquid | 247.86 J/K/mol and 248.77 J/K/mol and 247.19 J/K/mol
371.13 K, Liquid | 249.1 J/K/mol and 248.1 J/K/mol
373.13 K, Liquid | 251.1 J/K/mol and 250.68 J/K/mol and 249.52 J/K/mol
375.13 K, Liquid | 250.68 J/K/mol and 249.02 J/K/mol and 253.51 J/K/mol
377.13 K, Liquid | 254.17 J/K/mol and 251.51 J/K/mol and 250.68 J/K/mol
379.13 K, Liquid | 253.59 J/K/mol and 250.93 J/K/mol and 251.35 J/K/mol
381.13 K, Liquid | 253.92 J/K/mol and 251.01 J/K/mol and 252.18 J/K/mol
383.13 K, Liquid | 254.76 J/K/mol and 252.59 J/K/mol and 252.51 J/K/mol
385.13 K, Liquid | 255.92 J/K/mol and 253.59 J/K/mol and 253.01 J/K/mol
387.13 K, Liquid | 255.01 J/K/mol and 253.51 J/K/mol and 252.93 J/K/mol

Settings | Molar enthalpy of transition or fusion [kcal/mol]
[3] | 2.8

c1ccc2c(c1)Cc1ccccc1-2 [fluorene]
[2], Crystal
Settings | molar heat capacity at constant pressure
262.36 K | 171.44 J/K/mol
262.44 K | 171.61 J/K/mol
262.47 K | 171.61 J/K/mol
265 K | 173.52 J/K/mol and 173.36 J/K/mol
270 K | 176.77 J/K/mol and 176.68 J/K/mol
275 K | 180.01 J/K/mol and 179.93 J/K/mol and 180.09 J/K/mol
280 K | 183.33 J/K/mol and 183.25 J/K/mol
285 K | 186.49 J/K/mol and 186.41 J/K/mol and 186.33 J/K/mol
290 K | 189.65 J/K/mol and 189.49 J/K/mol and 189.4 J/K/mol
295 K | 192.9 J/K/mol and 192.81 J/K/mol and 192.73 J/K/mol
300 K | 196.47 J/K/mol and 196.31 J/K/mol
305 K | 201.38 J/K/mol and 201.21 J/K/mol
310 K | 208.11 J/K/mol and 208.2 J/K/mol and 207.95 J/K/mol
315 K | 216.18 J/K/mol and 216.34 J/K/mol and 216.09 J/K/mol
320 K | 223.33 J/K/mol and 223.66 J/K/mol and 223.41 J/K/mol
325 K | 227.9 J/K/mol and 228.32 J/K/mol
330 K | 231.81 J/K/mol and 232.39 J/K/mol and 232.31 J/K/mol
335 K | 236.96 J/K/mol and 237.3 J/K/mol and 237.21 J/K/mol
340 K | 242.04 J/K/mol and 241.87 J/K/mol
345 K | 246.77 J/K/mol and 246.61 J/K/mol
350 K | 251.85 J/K/mol and 251.76 J/K/mol and 251.68 J/K/mol
355 K | 257.25 J/K/mol and 257.17 J/K/mol and 257.08 J/K/mol
358.37 K | 261.08 J/K/mol
358.5 K | 261.32 J/K/mol and 261.24 J/K/mol
